# Laboratory results taken from ChEMBL document CHEMBL3758105 (J Med Chem, 2016).
# System: Canis familiaris
# Assay: Free AUC in beagle dog at 1 mg/kg, po administered as cassette dosing
# Assay type: ADME, organism-based, Canis lupus familiaris
# Conditions: in vivo
row,fAUC [µM·h],Compound
1,3.24,COc1cccc(CNC(=O)c2cc(-c3nnn(C[C@H]4CO[C@H](CO)CO4)n3)nc(C)n2)c1 (racemic)
2,1.23,COc1cccc(CNC(=O)c2cc(-c3nnn(C[C@H]4CO[C@H](CO)CO4)n3)cc(C)n2)c1 (racemic)

# System: Hepatocyte
# Assay: Drug level in human hepatocytes treated with N-(4-Fluoro-3-methoxybenzyl)-6-(2-(((2S,5R)-5-(hydroxymethyl)-1,4-dioxan-2-yl)methyl)-2H-tetrazol-5-yl)-2-methylpyrimidine-4-carboxamide
# Assay type: ADME, cell-based
# Conditions: not given
row,Drug metabolism,Compound
1,metabolite_detected,COc1cc(CNC(=O)c2cc(-c3nnn(C[C@H]4CO[C@H](C(=O)O)CO4)n3)nc(C)n2)ccc1F

# System: not listed separately
# Assay: Plasma protein binding in human
# Assay type: ADME, cell-free
# Conditions: read-out: PPB (converted)
row,fraction unbound,Compound
1,0.31,COc1cccc(CNC(=O)c2cc(-c3nnn(C[C@H]4CO[C@H](CO)CO4)n3)nc(C)n2)c1 (racemic)
2,0.14,COc1cccc(CNC(=O)c2cc(-c3nnn(C[C@H]4CO[C@H](CO)CO4)n3)cc(C)n2)c1 (racemic)

# System: not listed separately
# Assay: Clearance in Sprague-Dawley rat at 1 mg/kg, iv administered as bolus dose by LC-MS/MS analysis
# Assay type: ADME, organism-based
# Conditions: in vivo
row,clearance [mL/min/kg],Compound
1,9.8,COc1cc(CNC(=O)c2cc(-c3nnn(C[C@@H]4CO[C@@H](CO)CO4)n3)nc(C)n2)ccc1F
2,76.6,COc1cccc(CNC(=O)c2cc(-c3nnn(C[C@H]4CC[C@H](CO)CC4)n3)cc(C)n2)c1
3,63.5,COc1cccc(CNC(=O)c2cc(-c3nnn(CC4CCCCC4)n3)cc(C)n2)c1
4,10.6,COc1cccc(CNC(=O)c2cc(-c3nnn(C[C@H]4CO[C@H](CO)CO4)n3)nc(C)n2)c1 (racemic)
5,25.8,COc1cccc(CNC(=O)c2cc(-c3nnn(CC4COCCO4)n3)cc(C)n2)c1 (racemic)
6,7.7,COc1cccc(CNC(=O)c2cc(-c3nnn(C[C@H]4CO[C@H](CO)CO4)n3)cc(C)n2)c1 (racemic)
7,54.5,"COc1cccc(CNC(=O)c2cc(-c3nnn(CC4CCCCO4)n3)cc(C)n2)c1 (single isomer, unassigned; (-))"

# Biological target: T1, Organic anion transporter 3 (Homo sapiens, UniProt Q8TCC7)
# T1 sequence (Q8TCC7 whole entry): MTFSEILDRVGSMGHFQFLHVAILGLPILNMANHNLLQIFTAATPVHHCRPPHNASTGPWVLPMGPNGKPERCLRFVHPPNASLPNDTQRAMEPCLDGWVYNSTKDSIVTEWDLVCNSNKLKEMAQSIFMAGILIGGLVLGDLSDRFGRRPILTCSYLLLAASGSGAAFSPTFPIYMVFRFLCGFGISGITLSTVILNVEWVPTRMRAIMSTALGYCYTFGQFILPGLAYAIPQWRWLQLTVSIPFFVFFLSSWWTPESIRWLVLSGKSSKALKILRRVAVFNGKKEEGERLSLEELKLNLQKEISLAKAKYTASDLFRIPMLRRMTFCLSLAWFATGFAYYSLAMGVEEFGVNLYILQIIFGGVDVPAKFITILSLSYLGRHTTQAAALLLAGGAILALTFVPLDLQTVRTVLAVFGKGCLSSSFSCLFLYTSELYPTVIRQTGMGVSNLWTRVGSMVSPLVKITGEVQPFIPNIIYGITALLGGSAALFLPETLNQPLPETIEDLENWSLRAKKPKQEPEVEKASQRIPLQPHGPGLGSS
# Assay: Inhibition of human OAT3 expressed in HEK cells assessed as reduction of [3H]-estrone sulfate uptake by radioactivity counting analysis
# Assay type: cell-based, HEK293
# Conditions: not given
row,IC50 [nM],Compound
1,59000,COc1ccc(CNC(=O)c2cc3c(=O)n(Cc4ccc(C(=O)O)cc4)cnc3cn2)cc1

# System: not listed separately
# Assay: Intrinsic clearance in human liver microsomes measured over 40 mins by HPLC/MS analysis
# Assay type: ADME
# Conditions: read-out: CLH
row,microsomal CLint [µL/min/mg],Compound
1,< 8,COc1cc(CNC(=O)c2cc(-c3nnn(C[C@@H]4CO[C@@H](CO)CO4)n3)nc(C)n2)ccc1F
2,32.7,COc1cccc(CNC(=O)c2cc(-c3nnn(C[C@H]4CC[C@H](CO)CC4)n3)cc(C)n2)c1
3,41.7,COc1cccc(CNC(=O)c2cc(-c3nnn(CC4CCCCC4)n3)cc(C)n2)c1
4,< 8,COc1cccc(CNC(=O)c2cc(-c3nnn(C[C@H]4CO[C@H](CO)CO4)n3)nc(C)n2)c1 (racemic)
5,< 8,COc1cccc(CNC(=O)c2cc(-c3nnn(CC4COCCO4)n3)cc(C)n2)c1 (racemic)
6,< 8,COc1cccc(CNC(=O)c2cc(-c3nnn(C[C@H]4CO[C@H](CO)CO4)n3)cc(C)n2)c1 (racemic)
7,53.1,"COc1cccc(CNC(=O)c2cc(-c3nnn(CC4CCCCO4)n3)cc(C)n2)c1 (single isomer, unassigned; (-))"

# System: not listed separately
# Assay: Oral bioavailability in Sprague-Dawley rat at 1 mg/kg
# Assay type: ADME, organism-based
# Conditions: in vivo
row,bioavailability [%],Compound
1,113,COc1cc(CNC(=O)c2cc(-c3nnn(C[C@@H]4CO[C@@H](CO)CO4)n3)nc(C)n2)ccc1F
2,65,COc1cccc(CNC(=O)c2cc(-c3nnn(C[C@H]4CO[C@H](CO)CO4)n3)nc(C)n2)c1 (racemic)
3,48,COc1cccc(CNC(=O)c2cc(-c3nnn(C[C@H]4CO[C@H](CO)CO4)n3)cc(C)n2)c1 (racemic)

# System: not listed separately
# Assay: Thermodynamic solubility of the compound in crystalline solid form in phosphate buffer at pH 7.4
# Assay type: physicochemical
# Conditions: read-out: Therm_solubility
row,solubility thermodynamic [µM],Compound
1,237,COc1cccc(CNC(=O)c2cc(-c3nnn(C[C@H]4CO[C@H](CO)CO4)n3)nc(C)n2)c1 (racemic)
2,28,COc1cccc(CNC(=O)c2cc(-c3nnn(C[C@H]4CO[C@H](CO)CO4)n3)cc(C)n2)c1 (racemic)

# Biological target: CYP2C9 (Homo sapiens, UniProt P11712)
# Assay: Inhibition of CYP2C9 in human liver microsomes assessed as reduction of diclofenac metabolism at 3 uM after 8 mins
# Assay type: ADME
# Conditions: probe diclofenac
# CYP2C9, sequence (P11712 whole entry): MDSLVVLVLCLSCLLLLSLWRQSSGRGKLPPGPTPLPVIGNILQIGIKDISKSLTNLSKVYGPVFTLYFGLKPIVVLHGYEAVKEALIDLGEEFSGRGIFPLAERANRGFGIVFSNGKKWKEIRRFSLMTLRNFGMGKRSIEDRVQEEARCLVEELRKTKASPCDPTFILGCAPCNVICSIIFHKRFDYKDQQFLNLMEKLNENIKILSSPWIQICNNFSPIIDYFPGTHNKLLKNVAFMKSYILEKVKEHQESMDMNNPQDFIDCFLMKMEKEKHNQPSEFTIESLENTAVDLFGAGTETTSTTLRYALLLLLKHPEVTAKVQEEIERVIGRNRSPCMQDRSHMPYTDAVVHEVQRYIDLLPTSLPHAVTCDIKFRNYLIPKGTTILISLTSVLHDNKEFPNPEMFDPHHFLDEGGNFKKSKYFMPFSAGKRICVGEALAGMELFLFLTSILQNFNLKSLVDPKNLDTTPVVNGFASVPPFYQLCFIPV
row,"inhibition at 8 min, 3 µM [%]",Compound
1,66,COc1cccc(CNC(=O)c2cc(-c3nnn(C[C@H]4CC[C@H](CO)CC4)n3)cc(C)n2)c1

# System: not listed separately
# Assay: Drug level in cynomolgus monkey hepatocytes treated with N-(4-Fluoro-3-methoxybenzyl)-6-(2-(((2S,5R)-5-(hydroxymethyl)-1,4-dioxan-2-yl)methyl)-2H-tetrazol-5-yl)-2-methylpyrimidine-4-carboxamide
# Assay type: ADME, cell-based, Macaca fascicularis, Hepatocyte
# Conditions: not given
row,Drug metabolism,Compound
1,metabolite_detected,COc1cc(CNC(=O)c2cc(-c3nnn(C[C@H]4CO[C@H](C(=O)O)CO4)n3)nc(C)n2)ccc1F

# System: Rattus norvegicus
# Assay: Drug level in Sprague-Dawley rat treated with N-(4-Fluoro-3-methoxybenzyl)-6-(2-(((2S,5R)-5-(hydroxymethyl)-1,4-dioxan-2-yl)methyl)-2H-tetrazol-5-yl)-2-methylpyrimidine-4-carboxamide at 1 mg/kg, po
# Assay type: ADME, organism-based
# Conditions: in vivo
row,Drug metabolism,Compound
1,metabolite_detected,COc1cc(CNC(=O)c2cc(-c3nnn(C[C@H]4CO[C@H](C(=O)O)CO4)n3)nc(C)n2)ccc1F

# Biological target: Stromelysin-1 (Homo sapiens, UniProt P08254)
# Assay: Inhibition of MMP3 (unknown origin) catalytic domain using MCA-Arg-Pro-Leu-Gly-Leu-Dpa-Ala-Arg-Glu-Arg-NH2 as substrate preincubated for 60 mins followed by substrate addition by fluorescence assay
# Conditions: not given
# Stromelysin-1, sequence (P08254 whole entry, the tested form may be a part): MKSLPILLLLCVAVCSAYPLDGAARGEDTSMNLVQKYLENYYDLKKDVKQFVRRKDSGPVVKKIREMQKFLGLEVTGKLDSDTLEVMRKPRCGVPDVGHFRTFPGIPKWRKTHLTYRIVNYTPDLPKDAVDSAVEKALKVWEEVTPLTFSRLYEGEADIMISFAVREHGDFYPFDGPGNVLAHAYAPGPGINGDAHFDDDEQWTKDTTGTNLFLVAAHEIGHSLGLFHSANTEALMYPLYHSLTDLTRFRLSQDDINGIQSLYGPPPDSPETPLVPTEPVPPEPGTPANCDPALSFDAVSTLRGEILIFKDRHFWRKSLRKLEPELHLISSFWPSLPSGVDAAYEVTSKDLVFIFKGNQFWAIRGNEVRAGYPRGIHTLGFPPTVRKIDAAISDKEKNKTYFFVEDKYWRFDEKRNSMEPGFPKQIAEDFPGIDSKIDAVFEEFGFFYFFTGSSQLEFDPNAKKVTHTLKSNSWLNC
row,Ki [nM],Compound
1,> 10000,COc1cc(CNC(=O)c2cc(-c3nnn(C[C@@H]4CO[C@@H](CO)CO4)n3)nc(C)n2)ccc1F
2,> 10000,COc1cccc(CNC(=O)c2cc(-c3nnn(C[C@H]4CC[C@H](CO)CC4)n3)cc(C)n2)c1
3,> 10000,COc1cccc(CNC(=O)c2cc(-c3nnn(CC4CCCCC4)n3)cc(C)n2)c1
4,> 10000,COc1cccc(CNC(=O)c2cc(-c3nnn(C[C@H]4CO[C@H](CO)CO4)n3)nc(C)n2)c1 (racemic)
5,> 10000,COc1cccc(CNC(=O)c2cc(-c3nnn(CC4COCCO4)n3)cc(C)n2)c1 (racemic)
6,> 10000,COc1cccc(CNC(=O)c2cc(-c3nnn(C[C@H]4CO[C@H](CO)CO4)n3)cc(C)n2)c1 (racemic)

# System: not listed separately
# Assay: Plasma protein binding in beagle dog at 1 mg/kg, po administered as cassette dosing
# Assay type: ADME, organism-based, Canis lupus familiaris
# Conditions: read-out: PPB (converted)
row,fraction unbound,Compound
1,0.37,COc1cccc(CNC(=O)c2cc(-c3nnn(C[C@H]4CO[C@H](CO)CO4)n3)nc(C)n2)c1 (racemic)
2,0.24,COc1cccc(CNC(=O)c2cc(-c3nnn(C[C@H]4CO[C@H](CO)CO4)n3)cc(C)n2)c1 (racemic)

# System: not listed separately
# Assay: physchem
# Conditions: buffer, pH 7.4
row,logD,Compound
1,3.57,COc1cccc(CNC(=O)c2cc(-c3nnn(C[C@H]4CC[C@H](CO)CC4)n3)cc(C)n2)c1
2,4.37,COc1cccc(CNC(=O)c2cc(-c3nnn(CC4CCCCC4)n3)cc(C)n2)c1
3,2.49,COc1cccc(CNC(=O)c2cc(-c3nnn(CC4COCCO4)n3)cc(C)n2)c1 (racemic)
4,2.04,COc1cccc(CNC(=O)c2cc(-c3nnn(C[C@H]4CO[C@H](CO)CO4)n3)cc(C)n2)c1 (racemic)
5,3.22,"COc1cccc(CNC(=O)c2cc(-c3nnn(CC4CCCCO4)n3)cc(C)n2)c1 (single isomer, unassigned; (-))"

# System: not listed separately
# Assay: Drug level in cynomolgus monkey urine treated with N-(4-Fluoro-3-methoxybenzyl)-6-(2-(((2S,5R)-5-(hydroxymethyl)-1,4-dioxan-2-yl)methyl)-2H-tetrazol-5-yl)-2-methylpyrimidine-4-carboxamide
# Assay type: ADME, tissue-based, Macaca fascicularis
# Conditions: in vivo
row,Drug metabolism,Compound
1,metabolite_detected,COc1cc(CNC(=O)c2cc(-c3nnn(C[C@H]4CO[C@H](C(=O)O)CO4)n3)nc(C)n2)ccc1F

# System: Canis familiaris
# Assay: Free Cmax in beagle dog at 1 mg/kg, po administered as cassette dosing
# Assay type: ADME, organism-based, Canis lupus familiaris
# Conditions: in vivo
row,fCmax [nM],Compound
1,580,COc1cccc(CNC(=O)c2cc(-c3nnn(C[C@H]4CO[C@H](CO)CO4)n3)nc(C)n2)c1 (racemic)
2,66,COc1cccc(CNC(=O)c2cc(-c3nnn(C[C@H]4CO[C@H](CO)CO4)n3)cc(C)n2)c1 (racemic)

# System: not listed separately
# Assay: Intrinsic clearance in rat liver microsomes measured over 40 mins by HPLC/MS analysis
# Assay type: ADME
# Conditions: read-out: CLH
row,microsomal CLint [µL/min/mg],Compound
1,94.9,COc1cccc(CNC(=O)c2cc(-c3nnn(C[C@H]4CC[C@H](CO)CC4)n3)cc(C)n2)c1
2,98.5,COc1cccc(CNC(=O)c2cc(-c3nnn(CC4CCCCC4)n3)cc(C)n2)c1
3,74,COc1cccc(CNC(=O)c2cc(-c3nnn(CC4COCCO4)n3)cc(C)n2)c1 (racemic)
4,15.7,COc1cccc(CNC(=O)c2cc(-c3nnn(C[C@H]4CO[C@H](CO)CO4)n3)cc(C)n2)c1 (racemic)
5,192,"COc1cccc(CNC(=O)c2cc(-c3nnn(CC4CCCCO4)n3)cc(C)n2)c1 (single isomer, unassigned; (-))"

# System: Cynomolgus monkey
# Assay: Drug level in cynomolgus monkey treated with N-(4-Fluoro-3-methoxybenzyl)-6-(2-(((2S,5R)-5-(hydroxymethyl)-1,4-dioxan-2-yl)methyl)-2H-tetrazol-5-yl)-2-methylpyrimidine-4-carboxamide at 1 mg/kg, po
# Assay type: ADME, organism-based, Macaca fascicularis
# Conditions: in vivo
row,Drug metabolism,Compound
1,metabolite_detected,COc1cc(CNC(=O)c2cc(-c3nnn(C[C@H]4CO[C@H](C(=O)O)CO4)n3)nc(C)n2)ccc1F

# Biological target: Collagenase 3 (Homo sapiens, UniProt P45452)
# Assay: Inhibition of full length human recombinant MMP13 using MCA-Arg-Pro-Leu-Gly-Leu-Dpa-Ala-Arg-Glu-Arg-NH2 as substrate preincubated for 60 mins followed by substrate addition by fluorescence assay
# Conditions: not given
row,Ki [nM],Compound
1,0.2,COc1cc(CNC(=O)c2cc(-c3nnn(C[C@H]4CO[C@H](C(=O)O)CO4)n3)nc(C)n2)ccc1F
2,4.2,COc1cc(CNC(=O)c2cc(-c3nnn(C[C@@H]4CO[C@@H](CO)CO4)n3)nc(C)n2)ccc1F
3,2.1,COc1cccc(CNC(=O)c2cc(-c3nnn(C[C@H]4CC[C@H](CO)CC4)n3)cc(C)n2)c1
4,33.6,COc1cccc(CNC(=O)c2cc(-c3nnn(CC4CCCCC4)n3)cc(C)n2)c1
5,5.8,COc1cccc(CNC(=O)c2cc(-c3nnn(C[C@H]4CO[C@H](CO)CO4)n3)nc(C)n2)c1 (racemic)
6,14.1,COc1cccc(CNC(=O)c2cc(-c3nnn(CC4COCCO4)n3)cc(C)n2)c1 (racemic)
7,11.7,COc1cccc(CNC(=O)c2cc(-c3nnn(C[C@H]4CO[C@H](CO)CO4)n3)cc(C)n2)c1 (racemic)
8,7.7,"COc1cccc(CNC(=O)c2cc(-c3nnn(CC4CCCCO4)n3)cc(C)n2)c1 (single isomer, unassigned; (-))"
